Seven compounds from ChEMBL document CHEMBL1128035, “Structural optimization of alkyl-substituted 2-(7-5H-[1]benzopyrano[2,3-b]pyridyl)propionic acid as anti-inflammatory agents” (Bioorg Med Chem Lett, 1995) can be followed below.

The nature of data set [1]: Partition coefficient measured in n-octanol/ pH 7.4 phosphate buffer. The format is physicochemical.
Data set [2] deals with T1, Prostaglandin G/H synthase 1 (Ovis aries, UniProt P05979).
T1 sequence (P05979 whole entry): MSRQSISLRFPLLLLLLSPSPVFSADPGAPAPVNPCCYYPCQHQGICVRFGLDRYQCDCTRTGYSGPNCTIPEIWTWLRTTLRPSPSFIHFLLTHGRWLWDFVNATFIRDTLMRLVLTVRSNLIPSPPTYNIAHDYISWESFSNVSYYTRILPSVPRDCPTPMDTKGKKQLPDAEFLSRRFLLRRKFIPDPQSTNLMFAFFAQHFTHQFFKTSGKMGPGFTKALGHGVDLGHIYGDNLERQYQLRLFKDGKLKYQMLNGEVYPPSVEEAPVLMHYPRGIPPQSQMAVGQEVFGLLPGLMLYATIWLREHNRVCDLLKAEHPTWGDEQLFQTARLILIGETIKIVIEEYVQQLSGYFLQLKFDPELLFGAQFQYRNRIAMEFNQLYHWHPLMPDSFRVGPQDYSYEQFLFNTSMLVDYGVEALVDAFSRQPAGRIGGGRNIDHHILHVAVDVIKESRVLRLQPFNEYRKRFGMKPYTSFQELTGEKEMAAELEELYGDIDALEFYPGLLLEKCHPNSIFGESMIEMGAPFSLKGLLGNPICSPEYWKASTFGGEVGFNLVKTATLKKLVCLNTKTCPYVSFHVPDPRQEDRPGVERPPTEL
The data set is described as follows: Inhibitory activity against COX-1 from ram seminal vesicles.

Data set [3] concerns the target T2, Prostaglandin G/H synthase 1 (Rattus norvegicus, UniProt Q63921).
T2 sequence (Q63921 whole entry): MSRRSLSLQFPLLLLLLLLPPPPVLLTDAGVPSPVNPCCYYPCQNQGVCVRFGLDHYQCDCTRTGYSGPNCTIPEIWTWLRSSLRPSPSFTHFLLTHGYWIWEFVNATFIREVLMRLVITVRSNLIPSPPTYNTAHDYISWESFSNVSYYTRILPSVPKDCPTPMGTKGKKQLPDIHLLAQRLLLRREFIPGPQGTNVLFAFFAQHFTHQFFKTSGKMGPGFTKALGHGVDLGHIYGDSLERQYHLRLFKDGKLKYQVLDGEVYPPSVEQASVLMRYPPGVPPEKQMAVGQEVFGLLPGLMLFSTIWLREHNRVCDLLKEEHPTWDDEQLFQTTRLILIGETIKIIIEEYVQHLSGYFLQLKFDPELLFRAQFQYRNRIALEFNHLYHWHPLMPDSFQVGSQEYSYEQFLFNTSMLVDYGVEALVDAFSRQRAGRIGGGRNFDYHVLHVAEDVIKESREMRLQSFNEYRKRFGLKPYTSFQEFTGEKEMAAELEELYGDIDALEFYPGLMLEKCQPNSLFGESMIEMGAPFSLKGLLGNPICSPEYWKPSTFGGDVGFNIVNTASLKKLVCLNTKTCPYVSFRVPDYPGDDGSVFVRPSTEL
The data set can be described thus: Inhibitory activity against COX-1 from rat peritoneal leukocytes, measured by PGE-2 produced (enzyme immunoassay).

Where only a bound is given, the exact number is not on record here.

For the compound `CC(C)c1ccc2c(n1)Oc1ccc(C(C)C(=O)O)cc1C2` (configuration not stated), in data set [1], the logD (commonly the decadic logarithm of the distribution of all forms, ionised or not, between an organic phase and buffer at a given pH) stood at 0.67. In addition, the IC50 (in general, the concentration that inhibits the measured activity by half) in data set [2] was over 100000 nM.

The compound `Cc1ccnc2c1Cc1cc(C(C)C(=O)O)ccc1O2` (configuration not stated) came in with a log distribution coefficient (logD) in data set [1] of -0.17. In data set [2], the IC50 is over 100000 nM.

Turning to `Cc1cnc2c(c1)Cc1cc(C(C)C(=O)O)ccc1O2` (configuration not stated), in data set [1], the logD was determined as 0.03. In data set [2], this compound showed an IC50 of 11000 nM.

As to `CCc1ccc2c(n1)Oc1ccc(C(C)C(=O)O)cc1C2` (configuration not stated), the IC50 in data set [3] worked out at 110 nM; in data set [2], 850 nM. In data set [1], the pH-dependent lipophilicity (logD) stood at 0.45.

Consider `Cc1ccc2c(n1)Oc1ccc(C(C)C(=O)O)cc1C2` (configuration not stated), for which the IC50 in data set [3] worked out at 30 nM; in data set [2] it was 320 nM. The compound further registered a logD in data set [1] of -0.11.

`CCCc1ccc2c(n1)Oc1ccc(C(C)C(=O)O)cc1C2` (configuration not stated) showed a pH-dependent lipophilicity (logD) in data set [1] of 1.08. This compound registered a half-inhibitory concentration (IC50) in data set [2] of over 100000 nM.

Turning to `CC(C(=O)O)c1ccc2c(c1)Cc1cccnc1O2` (configuration not stated) [PRANOPROFEN], the 50% inhibitory concentration (IC50) in data set [3] is 390 nM; in data set [2], 3100 nM. Moreover, the logD in data set [1] is -0.72.
